# Results: patent publication US5443827A, “Fibrin-targeted inhibitors of thrombin” (President and Fellows of Harvard College, priority 1993, dated 1995)
# Columns and labels:
# [1] = target: T1, thrombin (Homo sapiens, UniProt P00734); test: β-Peptide assay (thrombin inhibition as a function of binding to immobilized β-peptide); assay type: biochemical; settings: fitted parameter ± SD
# Description: 96-well microtiter plates were coated overnight at 4° C. with β-peptide. 100 μl coating buffer (20 mM Tris, 50 mMNaCl, 1 mM CaCl2, 1 mM MgC2, pH 7.4) containing 0.005 mg β-peptide were applied to each well. After coating, the microtiter plate was first washed 5 times with coating buffer supplemented with 0.05% Tween 20 and then three times with water. Free binding sites were blocked overnight at 4° C. by the addition of 250 μl bovine serum albumin (2% w/v in coating buffer) per well. […]
# After washing 7 times with modified coating buffer (20 mM Tris, 0.5 M NaCl2, 1 mM CaCl2, 1 mM MgCl2, 0.2% Tween 20, pH 7.4) and three times with water, 100 μl of assay buffer (20 mMNaHPO4, 0.15M NaCl, 0.1% BSA, pH 7.4) were applied per well and 20 μl (1.25 U/ml) of thrombin solution were allowed to incubate for 1 h at room temperature. Then 50 μl of chromogenic substrate (S-2238 at 0.83 mg/ml) were applied and after 20 minutes, the reaction was stopped by addition of 50 μl of 20% acetic acid, and the resulting absorption read at 405 nm. Hirudin activity was detected as inhibition of thrombin activity and was expressed as % inhibition of total thrombin activity applied. […]
# [2] = target: T1, thrombin; test: Fibrin-Sepharose assay (thrombin inhibition as a function of binding to immobilized fibrin); assay type: biochemical; settings: 800 units applied
# Description: This assay is as described by Bode et al., J. Biol. Chem. 262:10819-10823, 1987, herein incorporated by reference, with the following modifications. For the purposes of assaying targeted anti-thrombin activity, trace labeling of fibrin-monomer is not necessary. 200 μl fibrin-Sepharose were incubated for 2.5 h at room temperature with defined amounts (by the S-2238 assay) of hirudin or hirudin-59D8-conjugate (hirudin-59D8-IgG or, alternatively, hirudin-59D8-Fab') in 100 μl of buffer. After washing the fibrin-Sepharose three times with 3 ml 0.15M NaCl, 200 μl S-2238 assay buffer and 40 μl (0.05 U) thrombin solution (1.25 U/ml) were added and incubated for 1 h at room temperature. Subsequently 100 μl of chromogenic substrate S-2238 were added, and the reaction was stopped after 25 min by addition of 100 μl 20% acetic acid. After centrifugation (5 min, 1,000×g), absorption of the supernatant was read at 405 nm. Hirudin activity was again detected as inhibition of thrombin activity and was expressed as % of total thrombin activity applied. […]
# [3] = tested on: fibrin formation on the surface of a plasma clot; test: Inhibition of thrombus growth in a fibrinogen solution; assay type: biochemical, human; settings: for 3 h; FIG. 4A
# Description: The method of Runge (Runge et al., Biochemistry 27:1153-1157, 1988, herein incorporated by reference) was followed, with the following modifications. Fresh-frozen plasma obtained from 5 donors was pooled, aliquoted and refrozen. Before each experiment, plasma was ultracentrifuged at 30,000 rpm for 60 min in a Beckmann SW 40 rotor in order to obtain platelet-free plasma (platelet count less than 1,000 platelets/μl). Immediately before each experiment, the anti-thrombin activities of hirudin and hirudin conjugate were calibrated using the S-2238 assay (i.e., the inhibition of thrombin peptidase activity by hirudin and its conjugates was determined, and appropriate dilutions were made so that the inhibition of thrombin peptidase activity was identical for each sample). […] The radioactivity level of each was then determined and only clots within 5% of the mean value were used for experiments.
# (§1) After counting, clots were resuspended in 100 μl TBS (0.1M Tris, 0.1M NaCl, pH 7.4). […] At predetermined intervals, clots were removed from the test tube, washed three times with 2 ml 0.15M NaCl and assayed for radioactivity. Clots incubated without thrombin inhibitor (NaCl-controls) often could not be quantitatively removed from the incubation vial because of complete clotting of the assay mixture. […]
# [4] = tested on: fibrin deposition on the surface of a clot suspended in human plasma; test: Inhibition of thrombus growth in human plasma; assay type: biochemical
# Description: The method of Runge (Runge et al., Biochemistry 27:1153-1157, 1988, herein incorporated by reference) was followed, with the following modifications. Fresh-frozen plasma obtained from 5 donors was pooled, aliquoted and refrozen. Before each experiment, plasma was ultracentrifuged at 30,000 rpm for 60 min in a Beckmann SW 40 rotor in order to obtain platelet-free plasma (platelet count less than 1,000 platelets/μl). Immediately before each experiment, the anti-thrombin activities of hirudin and hirudin conjugate were calibrated using the S-2238 assay (i.e., the inhibition of thrombin peptidase activity by hirudin and its conjugates was determined, and appropriate dilutions were made so that the inhibition of thrombin peptidase activity was identical for each sample). Platelet-free plasma clots were made by adding to plasma, in the following sequence: ^125 I-labelled human fibrinogen (20,000 cpm/ml plasma), 0.5M CaCl2 (final concentration 0.05M) and thrombin (0.5 NIH units/ml plasma). Immediately after the addition of thrombin, the solution was drawn into silastic tubing (i.d. 4 mm) and allowed to clot for 2 h at 37 ° C. The tubing was then cut into 1.8 cm sections yielding clots of approximately 0.2 ml. The clots were removed from the tubing, and each was placed in a plastic vial and washed three times with 2 ml 0.15M NaCl. The radioactivity level of each was then determined and only clots within 5% of the mean value were used for experiments.
# as §1, with “7.4). Experiments were initiated by the addition of 100 μl hirudin or conjugate solution containing defined amounts of anti-thrombin activity.” for “7.4).”
# [5] = target: T1, thrombin; settings: r-Hirudin as obtained from Knoll AG; cited from earlier work
substance,measurement,setting,value
hirudin,"B1, ultimate thrombin inhibition",[1]; FIG. 2A,4.3±0.5%
same,ultimate inhibition (B1),[1]; FIG. 2B,0%
same,thrombin inhibition,[2],32.3%
same,concentration giving complete inhibition of fibrin formation,[3],80 ATU/ml
same,fibrin deposition lower than NaCl control,"[4]; at 10 ATU/ml, FIG. 6A",17 µg
same,fibrin deposition lower than NaCl control,"[4]; at 100 ATU/ml, p=0.0001",112 µg
same,fibrin deposition compared with the mixture at 9 ATU/ml,"[4]; hirudin at 44 ATU/ml, p=0,003, FIG. 7",lower
same,specific activity,[5],"17,000 anti-thrombin units (ATU)/mg"
